This is an account of results in article PMC12699179, “Investigating Metal and Fluorophore Controlled Intracellular Localization in Noble Metal Thiosemicarbazone Complexes” (Chemistry (Weinheim an Der Bergstrasse, Germany), 2025).

By IC50 is commonly meant the concentration that gives 50% inhibition.

The test system of data set [1] is HeLa cells. Put plainly: MTT antiproliferative / cell viability assay. The data set is classed as cell-based. Particulars: for IC50: mean of three ± SD; for in vitro activity compared to its ligand: 72 hours. How it is done:
We investigated the antiproliferative activities of compounds 4‒8 against HeLa cells using the standard 3‐(4,5‐dimethylthiazol‐2‐yl)‐2,5‐diphenyltetrazolium bromide (MTT) assay (Table 2). […]
8. Cell viability studies […]
media. All biological experiments were thus conducted using 5 mM stock solutions in DMSO that were diluted with culture medium to produce a final concentration of 0.5% DMSO for all experiments unless specified otherwise.
Cell viability experiments
HeLa cells were harvested, pelleted by centrifugation, and resuspended in cell culture medium. The MTT assays were carried out in 96 well plates at a starting density of 1500 cells per well in 100 µL of culture medium. The next day, a dilution series of 7 different concentrations was prepared for each evaluated compound. After 24 h of incubation, the cells were treated with 100 µL of culture medium containing the prepared conc entrations of the respective compounds to reach a final volume of 200 µL in each well. As a negative control, one series of cells was treated with the vehicle only (0.5% DMSO). […]
MTT dye (2.5 mg/mL). After a further incubation of 2 h, the medium was aspired off, and 200 µL DMSO was added to solubilize the precipitated formazan dye. The formazan absorption was measured on a BMG LABTECH CLARIOstar Plus plate reader at 550 nm, using a reference wavelength of 620 nm. Using the mean absorbance of each set of identically treated wells, a dose-response curve was produced and normalized to the wells containing untreated cells to allow for plate-to-plate comparison. The dose-response curves were then subjected to non-linear regression analysis performed in Microsoft Excel to determine IC50 values. Data is shown as the mean of three replicate experiments, and error bars represent the standard

Data set [2] relates to HeLa cells. Also on record: method as in PMID 40488845. Particulars: 24 hours incubation, highest tested concentration 15 µM; cited from earlier work.
On the set-up of data set [3]: method as in PMID 40488845. Particulars: 1H NMR, over 24 hours; cited from earlier work.
Data set [4] is described as follows: Lipophilicity, n-octanol/PBS distribution (logD7.2). The data set is classed as physicochemical. Particulars: n-octanol/PBS distribution at pH 7.2; mean of three measurements ± SD. The text has this: Having synthesized and assessed the stabilities of the complexes, we moved on to measure their lipophilicities at pH = 7.2 using the n‐octanol/PBS partition coefficient (Table 1).^[ [33], [34] ^] While the complexes were all highly lipophilic, the BODIPY‐conjugated complexes were more lipophilic than their coumarin analogs. In both sets of conjugates, the logD values followed the trend Pd(II) > Pt(II) > Au(III), with the monocationic Au(III) complexes being the least lipophilic.
7. Lipophilicity (logD7.2)
500 mL aliquots of purified octanol and PBS were thoroughly mixed in a 2 L separatory funnel and left overnight to saturate the two phases. For compound sets 5 and 7, 20 μM standard solutions were prepared in PBS-saturated octanol, respectively. 5 mL standard solutions containing the compound in question were then pipetted into 15 mL centrifuge tubes, and a 5 mL aliquot of the octanol-saturated PBS was added. The resulting samples were shaken for 10 min and allowed to rest overnight for 18 hours. The samples were then centrifuged for 30 min (3000 g, 20 °C), and aliquots of the octanol phase were analyzed via UV -Vis spectroscopy.
Experiments were conducted in triplicate. The concentrations of the compounds in the octanol phase were then quantified with respect to their λmax. […]
where A0 = absorbance of 20 μM compound in PBS-saturated octanol

Data set [5] concerns HeLa cells. The experiment in a line: Cellular uptake assay, metal content by ICP-MS. It counts as cell-based. The settings on record: 10 µM, 24 h, whole cell accumulation by ICP-MS. The protocol:
Subsequently, we investigated the uptake of the conjugates 5 and 7 (at 10 µM) by incubating HeLa cells with the respective compounds for 24 hours and analyzing the final metal concentration inside the cells using inductively coupled plasma mass spectrometry (ICP‐MS). […]
HeLa cells were harvested and seeded in 100 mm × 21 mm cell culture dishes at a density of 200,000 cells per dish in 10 mL of growth medium. After 96 hours of incubation, when the cells had reached 90% confluency, the growth medium was aspirated and replaced with fresh medium containing 10 μM of a compound belonging to sets 5 or 7, respectively. The cells were incubated with the compound for 24 h, after which the medium was aspirated, and the cells were washed three times with 10 mL of PBS buffer. Subsequently, the washed cells were […]
trypsinized for 3 min, and the trypsin reaction was halted by the addition of 3 mL growth media.
Cells were suspended in the mixture, and the total cell count was determined using a Bio -Rad TC20 cell counter. The cell suspension was centrifuged at 5000 rpm for 5 minutes, and the supernatant was removed. The cells were then digested using 2 mL of aqua regia (3:1 v/v, 37% HCl and 70% HNO3, trace metal basis quality (Aldrich, purity ≥99.999%)) and sonicated at 60 °C for 16 h. The dissolved samples were then diluted with 13 mL of HPLC-grade water to reach a final volume of 15 mL. The total metal content of the samples was then determined via ICP-MS analysis (Thermo Scientific iCAP RQ, ASX-560) in Ar plasma in KED mode with He as collision gas. Reference to standards was made, and calibration curves were developed using commercial calibration standards (TraceCert®, Merck).
Fluorophore Compound Metal content
Table S3: Whole cell accumulation of compound sets 5 and 7 analyzed using ICP-MS and expressed in terms of total metal content. […]

Data set [6] in a line: Stability in cell culture medium by UV/Vis spectroscopy. Particulars: 50 µM, DMEM with 10% fetal bovine serum, over 72 hours. The data set is classed as physicochemical. The protocol: Likewise, the stability of these complexes was shown via UV/Vis spectrophotometry in cell culture medium over 72 hours.^[ [22] ^] The stability of the newly synthesized compounds was investigated similarly. […] However, the absorption profiles remained distinctly different from those of the corresponding free ligands, which was taken as evidence that the Pd(II) metal center remained chelated by the ligand.
(§1) Stability in Cell Culture Medium and Water
(§2) 5 mM stocks of the respective compounds in DMSO were diluted to produce a final concentration of 50 µM in water or Dulbecco's Modified Eagle's Medium (DMEM) containing 10% fetal bovine serum and 1% penicillin + streptomycin , respectively. The stability of the compounds was monitored via UV/Vis spectroscopy by recording the corresponding absorption profiles of the 50 µM solutions and comparing any changes to the profiles over […]

Details of data set [7]: method as in PMID 40488845. Particulars: UV/Vis, over 72 hours; cited from earlier work.
The nature of data set [8]: Stability in water by UV/Vis spectroscopy. It counts as physicochemical. Particulars: 50 µM, after 72 hours. How it is done:
In the case of the Au(III) complexes, both the BODIPY conjugated complex 7a and the parent Dp44mT complex 8a ostensibly decomposed in cell culture medium, as their absorption profiles in media lacked the characteristic charge transfer band at λmax ∼440 nm observed in water. […] However, a slight shift in the λmax coupled with a decrease in absorbance was observed (Figure 4D).
as §1, §2

Setting [9] is: Homo sapiens, 24 hours incubation, read-out: IC50 24 hours.
The mark [10] stands for this setting: Homo sapiens, 72 hours incubation, read-out: IC50 72 hours.
Setting [11] is: 24 hours incubation, read-out: IC50 24 hours.
Where [12] appears, read: 72 hours incubation, read-out: IC50 72 hours.

Read-outs that look alike come from different tables or passages of the source.

On to `CN(C)C(=S)NN=C(c1ccccn1)c1cccc(CCNC(=O)CCCNC(=O)c2cc3cc4c5c(c3oc2=O)CCCN5CCC4)n1` [Compound 4], for which the IC50 in the data set on HeLa cells [1] (setting [9]) is above 15 µM; in the data set on HeLa cells [1] (setting [10]), 0.8 ± 0.1 µM. Moreover, the “effect on cell viability after 24 hours” value in the data set on HeLa cells [2] is “did not affect cell viability”. For the same compound, the “stability in DMSO-d6” value in data set [3] is listed as “stable”.

For `CN(C)C1=N[N+]2=C(c3cccc(CCNC(=O)CCCNC(=O)c4cc5cc6c7c(c5oc4=O)CCCN7CCC6)n3)c3cccc[n+]3[Au-]2([Cl])[S]1.F[P-](F)(F)(F)(F)F` (stereo not shown) [Compound 5a], in data set [4], the “logD 7.2” value amounted to 0.99 ± 0.02. Moreover, the values for the IC50 in the data set on HeLa cells [1] (setting [11]) and with HeLa cells [1] (setting [12]) were above 15 µM and 3.1 ± 0.3 µM, respectively. For the same compound, the “in vitro activity compared to its ligand” value in the data set with HeLa cells [1] was “fourfold lower activity”. The compound also gave a Metal content in the data set with HeLa cells [5] of 0.032 ± 0.016 pg/cell. For the same compound, in data set [6], the “stability in cell culture medium” value is given as “similarly decomposed”.

For the compound `CN(C)C1=N[N+]2=C(c3cccc(CCNC(=O)CCCNC(=O)c4cc5cc6c7c(c5oc4=O)CCCN7CCC6)n3)c3cccc[n+]3[Pt-2]2([Cl])[S]1` (stereo not shown) [Compound 5b], the “logD 7.2” value in data set [4] stood at 1.47 ± 0.03. The IC50 was above 15 µM in the data set on HeLa cells [1] (setting [11]) and 58.2 ± 4.3 µM in the data set on HeLa cells [1] (setting [12]). Also, in the data set on HeLa cells [5], the Metal content is recorded as 0.016 ± 0.005 pg/cell. In the data set on HeLa cells [2], the “effect on cell viability after 24 hours” value is reported as “did not affect cell viability”. For the same compound, in data set [3], the “stability in DMSO-d6” value is given as “stable”. Also, in data set [7], the “stability in cell culture medium” value was “stable”.

With `CC1=CC(C)=[N+]2C1=Cc1ccc(CCC(=O)NCCc3cccc(C(=NNC(=S)N(C)C)c4ccccn4)n3)n1[B-]2(F)F` [Compound 6], the IC50 is above 15 µM with HeLa cells [1] (setting [9]) and 0.8 ± 0.1 µM in the data set on HeLa cells [1] (setting [10]).

With `CC1=CC(C)=[N+]2C1=Cc1ccc(CCC(=O)NCCc3cccc(C4=[N+]5N=C(N(C)C)[S][Au-]5([Cl])[n+]5ccccc54)n3)n1[B-]2(F)F.F[P-](F)(F)(F)(F)F` (stereo not shown) [Compound 7a], the “logD 7.2” value in data set [4] stood at 1.53 ± 0.07. The figures for the IC50 with HeLa cells [1] (setting [11]) and in the data set on HeLa cells [1] (setting [12]) were above 15 µM and 0.6 ± 0.1 µM, respectively. Moreover, the “in vitro activity compared to its ligand” value in the data set with HeLa cells [1] is given as “comparable to their respective ligands”. This compound yielded a Metal content in the data set with HeLa cells [5] of 0.035 ± 0.007 pg/cell. Further, the “stability in cell culture medium” value in data set [6] is reported as “decomposed”. Besides, the stability in water entry in data set [8] was “only mild degradation”.

For `CN(C)C1=N[N+]2=C(c3ccccn3)c3cccc[n+]3[Au-]2([Cl])[S]1.[Cl][Au-][Cl]` (stereo not shown) [Compound 8a], the IC50 with HeLa cells [1] (setting [11]) is above 15 µM; in the data set on HeLa cells [1] (setting [12]), 0.009 ± 0.0005 µM. Further, in the data set on HeLa cells [1], the “in vitro activity compared to its ligand” value is recorded as “comparable to their respective ligands”. The “stability in cell culture medium” value in data set [6] is listed as “decomposed”. Further, in data set [8], the stability in water entry was “only mild degradation”.

Regarding `CN(C)C(=S)NN=C(c1ccccn1)c1ccccn1` [Dp44mT, di‐2‐pyridylketone‐4,4‐dimethyl‐3‐thiosemicarbazone, reference compound], the IC50 was above 15 µM in the data set with HeLa cells [1] (setting [9]) and 0.009 ± 0.0003 µM in the data set with HeLa cells [1] (setting [10]). In addition, in the data set on HeLa cells [2], the “effect on cell viability after 24 hours” value is on record as “did not affect cell viability”.
